Measurements as given in US20150005264A1, “PREDICTIVE BIOMARKER FOR HYPOXIA-ACTIVATED PRODRUG THERAPY” (THRESHOLD PHARMACEUTICALS, INC., priority 2012, published 2015).

Tested on: melanoma
Test: Clinical trial of TH-302 monotherapy in melanoma patients, response compared with serum CA-IX level
Format: in vivo, human
Settings: thirty melanoma patients, pre-dose serum CA-IX (ELISA) cut-offs 28.8, 77.1, 178.3 pg/mL, FIG. 1
Method: In one important embodiment, the HAP is TH-302. In a clinical trial of TH-302 in melanoma patients, CA-IX levels were measured in serum samples taken from patients prior to TH-302 administration. Measured levels varied widely, with the first quartile having levels of 28.8 pg/mL CA-IX or less, the median being 77.1 pg/mL CA-IX, and the 3rd quartile having 178.3 pg/mL or less.
The data set used to generate the graphs in FIG. 1 was used to generate the graph in FIG. 2, which uses the 2×Median value of 154.2 pg/mL as the cut-off for dividing patients into high and low CA-IX level groups. Using this value as the cut-off, one sees an even more dramatic example of the predictive value of CA-IX levels in determining whether a patient will respond to TH-302 or other HAP therapy.

Cn1c(COP(=O)(NCCBr)NCCBr)cnc1[N+](=O)[O-] [TH-302, (2-bromoethyl)({[(2-bromoethyl)amino][(2-nitro-3-methylimidazol-4-yl)methoxy]phosphoryl})amine]
progression-free survival (response to TH-302) versus serum CA-IX level: higher CA-IX levels correlated to a better response to TH-302
